According to US9193720B2, “Pyridin-3-yl acetic acid derivatives as inhibitors of human immunodeficiency virus replication” (priority 2014, dated 2015):

The molecules below were run on NL-RLuc virus (assay: Inhibition of HIV Replication (NL-RLuc luciferase reporter virus in MT-2 cells)). Settings: Human immunodeficiency virus 1, MT2, 120 h.
Assay type: cell-based
Description: Inhibition of HIV Replication:
A recombinant NL-RLuc proviral clone was constructed in which a section of the nef gene from NL4-3 was replaced with the Renilla Luciferase gene. This virus is fully infectious and can undergo multiple cycles of replication in cell culture. In addition, the luciferous reporter provides a simple and easy method for quantitating the extent of virus growth and consequently, the antiviral activity of test compounds. The plasmid pNLRLuc contains the proviral NL-Rluc DNA cloned into pUC18 at the PvuII site. The NL-RLuc virus was prepared by transfection of 293T cells with the plasmid pNLRLuc. Transfections were performed using the LipofectAMINE PLUS kit from Invitrogen (Carlsbad, Calif.) according to the manufacturer and the virus generated was titered in MT-2 cells. For susceptibility analyses, the titrated virus was used to infect MT-2 cells in the presence of compound, and after 5 days of incubation, cells were processed and quantitated for virus growth by the amount of expressed luciferase. Assay media was RPMI 1640 supplemented with 10% heat inactivated fetal bovine serum (FBS), 100 units/ml penicillin G/100 units/ml streptomycin, 10 mM HEPES buffer pH 7.55 and 2 mM L-glutamine. The results from at least 2 experiments were used to calculate the EC50 values. Luciferase was quantitated using the Dual Luciferase kit from Promega (Madison, Wis.). Susceptibility of viruses to compounds was determined by incubation in the presence of serial dilutions of the compound. The 50% effective concentration (EC50) was calculated by using the exponential form of the median effect equation where (Fa)=1/[1+(ED50/drug conc.)^m] (Johnson V A, Byington R T. Infectivity Assay. In Techniques in HIV Research. ed. Aldovini A, Walker B D. 71-76. New York: Stockton Press. 1990).

Row | Structure (SMILES) | EC50 [nM]
1 | Cc1nc(C)c([C@H](OC(C)(C)C)C(=O)O)c(N2CCC(C)(C)CC2)c1-c1ccc(OC(C)Cc2ccc(F)cc2)cc1 (single isomer, unassigned) [Example 21] | 14
2 | Cc1nc(C)c([C@H](OC(C)(C)C)C(=O)O)c(N2CCC(C)(C)CC2)c1-c1ccc(Oc2ccccc2)cc1 [Example 1, (S)-2-(tert-butoxy)-2-(4-(4,4-dimethylpiperidin-1-yl)-2,6-dimethyl-5-(4-phenoxyphenyl)pyridin-3-yl)acetic acid] | 37
3 | Cc1nc(C)c([C@H](OC(C)(C)C)C(=O)O)c(N2CCC(C)(C)CC2)c1-c1ccc(OCc2ccc(F)cc2)cc1 [Example 2, (S)-2-(tert-butoxy)-2-(4-(4,4-dimethylpiperidin-1-yl)-5-(4-((4-fluorobenzyl)oxy)phenyl)-2,6-dimethylpyridin-3-yl)acetic acid] | 12
4 | Cc1nc(C)c([C@H](OC(C)(C)C)C(=O)O)c(N2CCC(C)(C)CC2)c1-c1ccc(OCc2ccccc2)nc1 [Example 3, (S)-2-(6′-(benzyloxy)-4-(4,4-dimethylpiperidin-1-yl)-2,6-dimethyl-[3,3′-bipyridin]-5-yl)-2-(tert-butoxy)acetic acid] | 20
5 | Cc1nc(C)c([C@H](OC(C)(C)C)C(=O)O)c(N2CCC(C)(C)CC2)c1-c1ccc(OCc2ccccc2)c(F)c1 [Example 4, (S)-2-(5-(4-(benzyloxy)-3-fluorophenyl)-4-(4,4-dimethylpiperidin-1-yl)-2,6-dimethylpyridin-3-yl)-2-(tert-butoxy)acetic acid] | 12
6 | Cc1nc(C)c([C@H](OC(C)(C)C)C(=O)O)c(N2CCC(C)(C)CC2)c1-c1ccc(OCc2ccccc2)cc1 [Example 5, (S)-2-(5-(4-(benzyloxy)phenyl)-4-(4,4-dimethylpiperidin-1-yl)-2,6-dimethylpyridin-3-yl)-2-(tert-butoxy)acetic acid] | 11
7 | COc1ccccc1COc1ccc(-c2c(C)nc(C)c([C@H](OC(C)(C)C)C(=O)O)c2N2CCC(C)(C)CC2)cc1 [Example 6, (S)-2-(tert-butoxy)-2-(4-(4,4-dimethylpiperidin-1-yl)-5-(4-((2-methoxybenzyl)oxy)phenyl)-2,6-dimethylpyridin-3-yl)acetic acid] | 20
8 | Cc1nc(C)c([C@H](OC(C)(C)C)C(=O)O)c(N2CCC(C)(C)CC2)c1-c1ccc(OCc2cccc(F)c2)cc1 [Example 7, (S)-2-(tert-butoxy)-2-(4-(4,4-dimethylpiperidin-1-yl)-5-(4-((3-fluorobenzyl)oxy)phenyl)-2,6-dimethylpyridin-3-yl)acetic acid] | 9
9 | COc1ccc(COc2ccc(-c3c(C)nc(C)c([C@H](OC(C)(C)C)C(=O)O)c3N3CCC(C)(C)CC3)cc2)cc1 [Example 8, (S)-2-(tert-butoxy)-2-(4-(4,4-dimethylpiperidin-1-yl)-5-(4-((4-methoxybenzyl)oxy)phenyl)-2,6-dimethylpyridin-3-yl)acetic acid] | 11
10 | Cc1nc(C)c([C@H](OC(C)(C)C)C(=O)O)c(N2CCC(C)(C)CC2)c1-c1ccc(OCc2ccc(Cl)cc2)cc1 [Example 9, (S)-2-(tert-butoxy)-2-(5-(4-((4-chlorobenzyl)oxy)phenyl)-4-(4,4-dimethylpiperidin-1-yl)-2,6-dimethylpyridin-3-yl)acetic acid] | 9
11 | CCOc1ccc(-c2c(C)nc(C)c([C@H](OC(C)(C)C)C(=O)O)c2N2CCC(C)(C)CC2)cc1 [Example 10, (S)-2-(tert-butoxy)-2-(4-(4,4-dimethylpiperidin-1-yl)-5-(4-ethoxyphenyl)-2,6-dimethylpyridin-3-yl)acetic acid] | 27
12 | Cc1nc(C)c([C@H](OC(C)(C)C)C(=O)O)c(N2CCC(C)(C)CC2)c1-c1ccc(OCCc2ccc(F)cc2)cc1 [Example 11, (S)-2-(tert-butoxy)-2-(4-(4,4-dimethylpiperidin-1-yl)-5-(4-(4-fluorophenethoxy)phenyl)-2,6-dimethylpyridin-3-yl)acetic acid] | 4
13 | Cc1cc(CCOc2ccc(-c3c(C)nc(C)c([C@H](OC(C)(C)C)C(=O)O)c3N3CCC(C)(C)CC3)cc2)ccc1F [Example 12, (S)-2-(tert-butoxy)-2-(4-(4,4-dimethylpiperidin-1-yl)-5-(4-(4-fluoro-3-methylphenethoxy)phenyl)-2,6-dimethylpyridin-3-yl)acetic acid] | 5
14 | Cc1nc(C)c([C@H](OC(C)(C)C)C(=O)O)c(N2CCC(C)(C)CC2)c1-c1ccc(OCCCc2ccc(F)cc2)cc1 [Example 13, (S)-2-(tert-butoxy)-2-(4-(4,4-dimethylpiperidin-1-yl)-5-(4-(3-(4-fluorophenyl)propoxy)phenyl)-2,6-dimethylpyridin-3-yl)acetic acid] | 12
15 | Cc1nc(C)c([C@H](OC(C)(C)C)C(=O)O)c(N2CCC(C)(C)CC2)c1-c1ccc(OCCC(C)(C)C)cc1 [Example 14, (S)-2-(tert-butoxy)-2-(5-(4-(3,3-dimethylbutoxy)phenyl)-4-(4,4-dimethylpiperidin-1-yl)-2,6-dimethylpyridin-3-yl)acetic acid] | 28
16 | COc1ccc(CCOc2ccc(-c3c(C)nc(C)c([C@H](OC(C)(C)C)C(=O)O)c3N3CCC(C)(C)CC3)cc2)cc1 [Example 15, (S)-2-(tert-butoxy)-2-(4-(4,4-dimethylpiperidin-1-yl)-5-(4-(4-methoxyphenethoxy)phenyl)-2,6-dimethylpyridin-3-yl)acetic acid] | 4
17 | Cc1nc(C)c([C@H](OC(C)(C)C)C(=O)O)c(N2CCC(C)(C)CC2)c1-c1ccc(O)cc1 [Example 16, (S)-2-(tert-Butoxy)-2-(4-(4,4-dimethylpiperidin-1-yl)-5-(4-hydroxyphenyl)-2,6-dimethylpyridin-3-yl)acetic acid] | 172
18 | Cc1nc(C)c([C@H](OC(C)(C)C)C(=O)O)c(N2CCC(C)(C)CC2)c1-c1ccc(OCCc2ccc(C(N)=O)cc2)cc1 [Example 17, (S)-2-(tert-Butoxy)-2-(5-(4-(4-carbamoylphenethoxy)phenyl)-4-(4,4-dimethylpiperidin-1-yl)-2,6-dimethylpyridin-3-yl)acetic acid] | 4
19 | Cc1nc(C)c([C@H](OC(C)(C)C)C(=O)O)c(N2CCC(C)(C)CC2)c1-c1ccc(OCCc2ccc(C#N)cc2)cc1 [Example 18, (S)-2-(tert-Butoxy)-2-(5-(4-(4-cyanophenethoxy)phenyl)-4-(4,4-dimethylpiperidin-1-yl)-2,6-dimethylpyridin-3-yl)acetic acid] | 2
20 | Cc1nc(C)c([C@H](OC(C)(C)C)C(=O)O)c(N2CCC(C)(C)CC2)c1-c1ccc(OCc2ccc(C(N)=O)cc2)cc1 [Example 19, (S)-2-(tert-Butoxy)-2-(5-(4-((4-carbamoylbenzyl)oxy)phenyl)-4-(4,4-dimethylpiperidin-1-yl)-2,6-dimethylpyridin-3-yl)acetic acid] | 12
21 | Cc1nc(C)c([C@H](OC(C)(C)C)C(=O)O)c(N2CCC(C)(C)CC2)c1-c1ccc(OCc2ccc(C#N)cc2)cc1 [Example 20, (S)-2-(tert-Butoxy)-2-(5-(4-((4-cyanobenzyl)oxy)phenyl)-4-(4,4-dimethylpiperidin-1-yl)-2,6-dimethylpyridin-3-yl)acetic acid] | 3
